Reference: patent publication US20180318199A1, “Pharmaceutical Composition Having Anti-Aging Properties against High-Glucose” (TAIWAN LEADER BIOTECH CORP., priority 2017, published 2018)

What was measured:
Type in all cases: cell-based, human
HO-1 and NQO-1 = assay: Q-PCR of HO-1 and NQO-1 mRNA in HNDFs; conditions: 12 h
Protocol: Therefore, it is hypothesized that ANM may upregulate anti-oxidant genes, which may suppress HG-induced ROS generation in HNDFs. In FIG. 5B and FIG. 5C, to quantify the mRNA expression levels of HO-1 and NQO-1, HNDFs are incubated with ANM (10 μM) or NAC (100 μM) in the presence or absence of HG (30 mM) for 12 h. Total RNA is extracted and subjected to Q-PCR analysis. Relative mRNA levels are normalized with β-actin mRNA. […] In contrast, as compared with the NG treatment group, […] expression levels of HO-1 and NQO-1 are observed in the HG treatment group.
As shown in the figures, to confirm a hypothesis that ANM protects HNDFs from HG-induced oxidative stress, an Nrf2 gene knockdown system using Nrf2 siRNA is developed. In FIG. 6A, HNDFs are transfected with specific siRNA against Nrf2 or control siRNA. After transfection for 24 h, cells are incubated with ANM (10 μM) in the presence of HG for 12 h. Total RNA is extracted and subjected to Q-PCR analysis to determine HO-1 and NQO-1 mRNA expression levels. […] From the data, it can be concluded that Nrf2 plays a vital role in HO-1 and NQO-1 induction even at the basal level.
Total RNA is extracted from cultured HNDFs using Trizol Reagent (Thermo Fisher Scientific). Q-PCR analysis is performed using Applied Biosystems detection instruments and software. Forward and reverse primers (10 μM), and the working solution SYBR green, is used as a PCR master mix, under the following conditions: 96° C. for 3 minutes followed by 40 cycles at 96° C. for 1 minute, 50° C. for 30 seconds and 72° C. for 90 seconds. GAPDH is used as an internal standard to control for variability in amplification because of differences in starting mRNA concentrations. The copy number of each transcript is calculated as the relative copy number normalized by GAPDH copy number.

p53 and FoxO1 = assay: Western blot of p53 and FoxO1 acetylation in HUVECs; conditions: ANM 10 μM + HG 30 mM
Protocol: Please refer to FIG. 9A˜FIG. 9H, which are views showing HG-induced senescence prevented by ANM in human umbilical vein endothelial cells (HUVECs). As shown in the figures, to further delineate the protective effects of ANM on another cell system, experiments are designed to investigate the protective effect of ANM on HUVECs incubated in media containing either NG or HG alone or with ANM for 48 h. Cell viability is measured by MTT assay. […] Cell viability is determined by MTT assay. Percentage of viable cells are normalized with control cells (NG). […] In addition, in FIG. 9B, cellular senescence is determined by SA-β-gal activity assay. […] In addition, in FIG. 9C and FIG. 9D, total cell lysate is extracted and senescence-associated marker proteins including p16^INK4A, p21^CIP1 total and acetylated p53 and FoxO1 are measured by western blot analysis.
Cells are lysed by either RIPA lysis buffer or nuclear and cytoplasmic extraction reagents (Thermo Fisher Scientific). Protein concentrations are determined by Bio-Rad protein assay reagent (Bio-Rad Laboratories, Hercules, Calif.). […] The blots are detected using VL Chemi-Smart 3000 (Viogene Biotek, Sunnyvale, Calif.) with the enhanced chemiluminescence (ECL) western blotting reagent (Millipore, Billerica, Mass.).

SIRT-1, SIRT-3, SIRT-6 = assay: Western blot of SIRT proteins and phos-SIRT-1 in HNDFs; conditions: 72 h
Protocol: Total cell lysate is extracted and subjected to western blot analysis to monitor SIRT-1, SIRT-3, SIRT-6 protein levels.
The protein expression levels of SIRT-1, SIRT-6, p21^CIP1, SMP30, p53, FoxO and acetylation of p53 and FoxO1 are determined by western blot analysis.
To further understand the regulation of SIRT-1 by ANM, the effect of ANM on SIRT-1 activation and protein stability is examined under hyperglycemic conditions. In FIG. 7I, cells are incubated with JNK/SAPK or p38 MAPK inhibitors SP600125 (SP, 30 μM) and SB203580 (SB, 30 μM) in the presence of HG for 72 h. The protein expression levels of phos-SIRT-1 and SIRT-1 are determined by western blotting. Results are expressed as mean±S.E.M of three independent experiments. Statistical significance is set at ^ϕP<0.05 as compared to NG vs. HG and *P<0.05 as compared to HG vs. samples. Previous studies have shown that hyperphosphorylation of SIRT-1 at serine 47 (Ser47) is correlated with enhanced endothelial senescence. In addition, persistent activation of JNK1/2 by multiple factors including hyperglycemia induces extensive SIRT-1 proteasome degradation followed by phosphorylation at Ser47. […] Therefore, it is hypothesized that ANM-mediated suppression of JNK1/2 and p38 MAPK activation may have a functional role in the stability of SIRT-1 protein.
Cells are lysed by either RIPA lysis buffer or nuclear and cytoplasmic extraction reagents (Thermo Fisher Scientific). Protein concentrations are determined by Bio-Rad protein assay reagent (Bio-Rad Laboratories, Hercules, Calif.). Equal amounts of protein samples (60 μg) are separated by 7-12% SDS-PAGE and the separated proteins are transferred onto polyvinylidene […] (PVDC) membrane overnight. The transferred protein membranes are blocked with 5% non-fat dried milk for 30 min, followed by incubation with specific primary antibodies overnight, and either horseradish peroxidase-conjugated goat anti-rabbit or anti-mouse antibodies for 2 h. The blots are detected using VL Chemi-Smart 3000 (Viogene Biotek, Sunnyvale, Calif.) with the enhanced chemiluminescence (ECL) western blotting reagent (Millipore, Billerica, Mass.).

C=C(CCC(C)C1CCC2C3=C(C(=O)C(O)C21C)C1(C)CCC(O)C(C)C1CC3)C(C)C(=O)O (centres unmarked) [ANM, antcin M]
HO-1 and NQO-1 mRNA levels in HG treated groups (HO-1 and NQO-1; ANM 10 μM + HG 30 mM): further increased
HO-1 and NQO-1 expression, siNrf2-transfected cells (HO-1 and NQO-1; ANM 10 μM + HG): decrease
HO-1 and NQO-1 mRNA levels, control siRNA cells (HO-1 and NQO-1; ANM 10 μM + HG, scrambled siRNA): remarkable increase
HO-1 and NQO-1 mRNA levels, compound alone (HO-1 and NQO-1; ANM 10 μM, no HG): significantly increases
HG-induced p53 and FoxO1 acetylation in HUVECs (p53 and FoxO1): significantly blocks
HG-induced reduction in SIRT-1, SIRT-3 and SIRT-6 proteins (SIRT-1, SIRT-3, SIRT-6; ANM 10 μM + HG 30 mM): significantly prevented
SIRT-1 and SIRT-6 expression, control siRNA cells (SIRT-1, SIRT-3, SIRT-6; ANM 10 μM + HG): significantly increases
HG-induced SIRT-1 phosphorylation at Ser47 (SIRT-1, SIRT-3, SIRT-6; ANM or RES + HG): significantly attenuates
